Experimental data published in patent publication US20210330672A1, “USE OF BCL6 INHIBITORS FOR TREATING AUTOIMMUNE DISEASES” (TEQLA THERAPEUTICS INC., priority 2018, published 2021).

Legend:
[1] = system: KLH-specific IgG; test: KLH-specific serum IgG (ELISA) after in vivo treatment of KLH-immunized mice; design: species or system C57BL/6 mice; details: for Serum IgG Level, Day 14, Group Mean: KLH-immunized mice, KLH + Vehicle group 223879
Procedure: (§1) Experimental animals: Female C57BL/6 mice were purchased from Envigo (Livermore, Calif.) to provide 8- to 10-week-old animals at the time of immunization. IgG measurements were performed using Innovative Research KLH IgG ELISA kit. Germinal center staining was performed on Dako autostainer using procedures well known in the art.
(§2) On Day 0, animals of Groups 2-6 (n=10 each) were immunized by intraperitoneal (IP) injection with 0.2 mL (0.5 mg) per mouse of KLH, a dose determined to be optimal for IP administration without adjuvant. Mice from Group 1 (n=5) were sham-immunized by IP injection of 0.2 mL PBS per mouse.
(§3) Starting on Day 0 (immediately post-immunization) and continuing through Day 13 (i.e., 14 days total), animals in Group 1, 2, and 4-6 were injected IP once daily (QD) with vehicle, 30 mg/kg Compound 1, 10 mg/kg Compound 1, or 100 mg/kg Compound 2; animals in Group 3 were injected IP once weekly (QW) with 50 mg/kg CP. All doses were administered by IP injection at 5 mL/kg at approximately the same time (±1 h) each day.
(§4) On Day 14 (at approximately 24 hours after the final dose administration), all animals were subjected to terminal cardiocentesis and euthanized. Following clotting and processing, the resulting serum samples were flash-frozen and stored at −80° C. pending analysis by enzyme-linked immunosorbent assay (ELISA). The spleen was harvested from each mouse and split into two. One half of each spleen was collected for immunohistochemical (IHC) analysis of germinal center activity using peanut agglutinin (PNA) staining. Single-cell suspensions were collected from the other spleen halves and stored in DMSO cell-freezing medium. These samples were to be used for optional FACS analysis. Remaining tissues were discarded without further evaluation.
(§5) Statistical analysis: Descriptive and inferential analyses were performed using the corresponding functions of Excel 2010 (Microsoft, Redmond, Wash.). Inferential analysis consisted of t-test comparisons (two-tailed, non-paired, heteroscedasticity assumed) between groups as indicated. Values of p<0.05 were considered statistically significant.
Results:KLH-specific IgG Levels. ELISA (performed as experimental replicates) was used to determine the levels of immunoglobulin G (IgG) specific for KLH in the terminal serum samples.

[2] = system: germinal centers of the spleen; test: IHC with PNA staining of spleen as a measure of germinal center activity in KLH-immunized mice; type: in vivo, C57BL/6 mice; details: spleen Day 14; for Staining Intensity, Group Mean: PNA IHC, KLH + Vehicle group 2.4; for % PNA-Positive Staining of Germinal Center, Group Mean: KLH + Vehicle group 42%
Procedure: as §1, §2, §3, §4, §5
Immunohistochemical (IHC) Staining with Peanut Agglutinin (PNA) as a Measure of Germinal Center Activity. IHC with PNA staining was used to determine the levels of positive staining in the germinal centers of the spleen.

SMILES: O=P1(N(CCCl)CCCl)NCCCO1 (stereo not drawn) [CP, cyclophosphamide, reference compound]
- attenuation of immune response to KLH (serum IgG and PNA staining of splenic germinal centers) ([1]; 50 mg/kg, IP, once weekly over 14 days): nominal but non-significant attenuation
- Serum IgG Level, Day 14, Group Mean ([1]; 50 mpk IP once weekly over 14 days): 161482 U/mL
- Staining Intensity, Group Mean ([2]; 50 mpk IP once weekly): 1.3
- % PNA-Positive Staining of Germinal Center, Group Mean ([2]; 50 mpk IP once weekly): 29%

SMILES: CNC(=O)COc1cc2cc(Nc3nc(N4C[C@H](C)C[C@H](C)C4)ncc3Cl)ccc2n(C)c1=O [Compound 1, 2-((6-((5-chloro-2-((3R,5S)-3,5-dimethylpiperidin-1-yl)pyrimidin-4-yl)amino)-1-methyl-2-oxo-1,2-dihydroquinolin-3-yl)oxy)-N-methylacetamide]
- Serum IgG Level, Day 14, Group Mean ([1]; 10 mpk IP once daily Days 0-13): 100997 U/mL
- Serum IgG Level, Day 14, Group Mean ([1]; 30 mpk IP once daily Days 0-13): 103098 U/mL
- Staining Intensity, Group Mean ([2]; 10 mpk IP once daily): 1.2
- Staining Intensity, Group Mean ([2]; 30 mpk IP once daily): 1.5
- % PNA-Positive Staining of Germinal Center, Group Mean ([2]; 10 mpk IP once daily): 12%
- % PNA-Positive Staining of Germinal Center, Group Mean ([2]; 30 mpk IP once daily): 12%

SMILES: CNC(=O)COc1cc2cc(Nc3nc(N4CCC(C(=O)N(C)C)CC4)ncc3Cl)cc(OC)c2n(C)c1=O [Compound 2, 1-(5-chloro-4-((8-methoxy-1-methyl-3-(2-(methylamino)-2-oxoethoxy)-2-oxo-1,2-dihydroquinolin-6-yl)amino)pyrimidin-2-yl)-N,N-dimethylpiperidine-4-carboxamide]
- attenuation of immune response to KLH (reduced IgG levels and germinal center activity) ([1]; 100 mg/kg, IP, once daily over 14 days): highly significant attenuation
- attenuation of immune response to KLH ([1]; 10 or 30 mg/kg, IP, once daily over 14 days, no observable dose response): less significant attenuation
- Serum IgG Level, Day 14, Group Mean ([1]; 100 mpk IP once daily Days 0-13): 41503 U/mL
- Staining Intensity, Group Mean ([2]; 100 mpk IP once daily): 1.1
- % PNA-Positive Staining of Germinal Center, Group Mean ([2]; 100 mpk IP once daily): 7%
